Source: publication PMC10477861, “Efficient Mining of Anticancer Peptides from Gut Metagenome” (Advanced Science, 2023)
Where no end group is shown, it is not given here.

Tests used:
MDA-MB-231 = test: MTT primary screening of anticancer activity, MDA-MB-231; format: cell-based; conditions: 25 µM pACP, 24 h, maintenance medium 1% FBS, ratio of viability to vehicle (PBS), at least three technical repetitions
Summary of the method: (§1)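 Cultures grown to 60% confluence; complete medium replaced by 1% FBS maintenance medium; peptide added at 25 µM final; incubated 24 h; viability assessed by MTT.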

B16 = test: MTT primary screening of anticancer activity, B16; format: cell-based, Mouse; conditions: 25 µM pACP, 24 h, maintenance medium 1% FBS, ratio of viability to vehicle (PBS), at least three technical repetitions
Summary of the method: as §1

MCF7 = test: MTT primary screening of anticancer activity, MCF7; format: cell-based; conditions: 25 µM pACP, 24 h, maintenance medium 1% FBS, ratio of viability to vehicle (PBS), at least three technical repetitions
Summary of the method: as §1

CT26 cells = test: Transmission electron microscopy of treated CT26 cells; format: cell-based, Murine; conditions: 10× CC50, two hours, triplicate
Description: To explore the anticancer effects of pACP2283 and pACP1780 at the cellular level, we co‐cultured confluent CT26 cells with these pACPs.
Experiments were performed in triplicate with similar results, and a representative figure is shown. c) CD results for the two selected ACPs and the corresponding proportions of secondary structures calculated from CD data using CDNN. Purple represents the water phase, blue represents the represents the peptide mixed with a 20‐fold POPC lipid mixture, and grey represents the peptide mixed with a 20‐fold POPC+POPS lipid mixture.
First, CT26 cancer cells were treated with peptides pACP1780 and pACP2283 for two hours. The digested CT26 cancer cells were then resuspended in double‐strength fixative, which consisted of 2% (w/v) paraformaldehyde and 2.5% (v/v) glutaraldehyde in 10 mM HEPES buffer (pH 7.0). Subsequently, the cells were incubated for 2 h at room temperature on a roller and stored at 4°C. Afterward, the fixed cells were pre‐embedded with agar, subjected to four washes with 5 mM HEPES buffer (pH 7.0) (5 min per wash), and post‐fixed with 1% osmium tetroxide (OsO4) for 30 min. Following post‐fixation, the specimens were rinsed twice with water and dehydrated using an acetone series (5 min each; 30%, 50%, 70%, 85%, 90%, 3×5 min 100%). […]

Hela = test: MTT primary screening of anticancer activity, Hela; format: cell-based, Human; conditions: 25 µM pACP, 24 h, maintenance medium 1% FBS, ratio of viability to vehicle (PBS), at least three technical repetitions
Summary of the method: as §1

HEK293 cells = test: Toxicity to HEK293 cells (MTT); format: cell-based; conditions: 1.5-100 µM pACP, 24 h, maintenance medium 1% FBS
Description: (§2) Furthermore, we investigated the safety of pACP2283 and pACP1780 both in vivo and in vitro. […] Additionally, we conducted an acute toxicity experiment in tumor‐free mice by administering pACPs with increasing concentrations into the abdomen. […] This temporary decrease in body weight growth rate may be attributed to the high concentrations of pACPs, which temporarily disturbed the mice's homeostasis.
(§3) To assess the toxicity of pACP1780 and pACP2283 at the cellular level, HEK293 cells were grown to 60% confluence in complete medium (10% FBS) for 24 h, and then treated with increasing concentrations (1.5, 3, 6, 12.5, 25, 50, and 100 µM) of each pACPs in maintenance medium (1% FBS) for 24 h. The viability of HEK293 cells was determined using the MTT Cell Proliferation and Cytotoxicity Assay Kit following the manufacturer's instructions. For acute toxicity in tumor‐free mice, the pACPs were injected into the abdomen at increasing concentrations of 2, 10, and 50 mg kg^−1 of mouse weight over three days, and the body weights were recorded throughout the process.

HT29 = test: MTT primary screening of anticancer activity, HT29; format: cell-based, Human; conditions: 25 µM pACP, 24 h, maintenance medium 1% FBS, ratio of viability to vehicle (PBS), at least three technical repetitions
Summary of the method: as §1

tumor-free mice = test: Acute toxicity in tumor-free mice; format: in vivo; conditions: for growth rate of body weight: after injection into the abdomen at 50 mg kg-1, gradually recovered over the next five days; for symptoms of illness or body weight loss, acute toxicity: injected into the abdomen at 2, 10 and 50 mg kg-1 over three days, up to 50 mg kg-1
Description: as §2, §3

BT474 = test: MTT primary screening of anticancer activity, BT474; format: cell-based; conditions: 25 µM pACP, 24 h, maintenance medium 1% FBS, ratio of viability to vehicle (PBS), at least three technical repetitions
Summary of the method: as §1

T47D = test: MTT primary screening of anticancer activity, T47D; format: cell-based; conditions: 25 µM pACP, 24 h, maintenance medium 1% FBS, ratio of viability to vehicle (PBS), at least three technical repetitions
Summary of the method: as §1

MDA-MB-436 = test: MTT primary screening of anticancer activity, MDA-MB-436; format: cell-based; conditions: 25 µM pACP, 24 h, maintenance medium 1% FBS, ratio of viability to vehicle (PBS), at least three technical repetitions
Summary of the method: as §1

MDA-MB-468 = test: MTT primary screening of anticancer activity, MDA-MB-468; format: cell-based; conditions: 25 µM pACP, 24 h, maintenance medium 1% FBS, ratio of viability to vehicle (PBS), at least three technical repetitions
Summary of the method: as §1

Row | Sequence | Survival rate of cancer cells in primary screening (MDA-MB-231) | Survival rate of cancer cells in primary screening (B16) | Survival rate of cancer cells in primary screening (MCF7) | cell membranes by transmission electron microscopy (CT26 cells) | Survival rate of cancer cells in primary screening (Hela) | toxicity to HEK293 cells (HEK293 cells) | Survival rate of cancer cells in primary screening (HT29) | growth rate of body weight (tumor-free mice) | symptoms of illness or body weight loss, acute toxicity (tumor-free mice) | Survival rate of cancer cells in primary screening (BT474) | Survival rate of cancer cells in primary screening (T47D) | Survival rate of cancer cells in primary screening (MDA-MB-436) | Survival rate of cancer cells in primary screening (MDA-MB-468)
1 | RRFAWIGKLQSRKVRNNIRQYRTKIVRQMRRQIFRQMKQKAE [pACP1780] | 0.09 | 0.41 | 0.0113 | disintegrated cell membranes | 0.00724 | no toxicity to HEK293 cells | 0.33 | slight decrease | no significant symptoms of illness or body weight loss | 0.03 | 0.0167 | 0.00535 | 0.19
2 | WWRRAERSVRRFFGTPIGPFPEIFGRRKAHKKKIIAKFDSVNG [pACP2283] | 0.06 | 0.28 | 0.0549 | disintegrated cell membranes | 0.00225 | no toxicity to HEK293 cells | 0.51 | slight decrease | no significant symptoms of illness or body weight loss | 0.02 | 0.0119 | 0.00645 | 0.09
